{"source": "paper PMC7600788", "about": "“Sequence Permutation Generates Peptides with Different Antimicrobial and Antibiofilm Activities” (Pharmaceuticals, 2020)", "key": {"S. aureus USA300 LAC [1]": {"test_system": "S. aureus USA300 LAC", "assay": "Inhibition of biofilm attachment (XTT)", "format": "cell-based, Staphylococcus aureus", "conditions": "12.5 µM; 1 h, XTT", "source_text": "Antimicrobial effects of the peptides are different on diverse forms of bacteria. The free and motile forms cultivated in laboratories are the planktonic bacteria onto which the peptides and antibiotics can have direct effects. However, the activity of the microbicides can be reduced to the biofilm forms where bacteria are less exposed and hidden inside the shield. The development of the biofilms starts with the attachment of the individual cells on the substratum followed by biofilm growth and maturation into more solid biomass. We tested the ability of WW295 and WW298 in fighting the biofilms of S. aureus USA300 LAC at the two stages. […] These 96-well commercial plates were pre-treated commercially with tissue culture to enhance cell adhesion.\nThis experiment was performed to measure the ability of the peptide to inhibit bacterial attachment, the initial step for biofilm formation. In short, an overnight culture of S. aureus USA300 was grown in TSB media to an optical density (600 nm) of ∼1.0. […] Live cells in the biofilms were then quantitated using XTT [2,3-bis(2-methyloxy-4-nitro-5-sulfophenyl)-2H-tertazolium-5-carboxanilide] assay by following the manufacturer’s instructions with modifications. […] Absorbance at 450 nm (only media with XTT containing wells served as the blank) was obtained using a Chromate^TM microtiter plate reader. […]"}, "E. coli ML35p": {"test_system": "E. coli ML35p", "assay": "Simultaneous outer and inner membrane permeation (nitrocefin / ONPG)", "format": "cell-based, Escherichia coli", "conditions": "3.1 µM", "source_text": "To confirm the mechanism of action, we also performed membrane permeation using a reporter strain of E. coli ML35p. This strain enabled simultaneous monitoring of membrane permeation of both the inner and outer membranes of Gram-negative bacterium E. coli. Both WW295 and WW298 were included in the experiment. […] This is indicated by the sharp development of absorbance at 490 nm for nitrocefin (panel A) and at 420 nm for ONPG (panel B).\nThe E. coli ML-35p strain was utilized to probe the permeation of both the outer membrane (OM) and inner membrane (IM). This strain was engineered to have two membrane reporters. Nitrocefin is used for detection of OM permeabilization. Nitrocefin is excluded from the periplasm. […] The chromogenic cleavage product was spectrophotometrically monitored at 490 nm. […] However, permeabilization of the IM helps ONPG to enter cytoplasm and get cleaved by cytoplasmic β-galactosidase into o-nitrophenol, which can be detected spectrophotometrically at 420 nm. […] Absorbances at both 490 and at 420 nm were monitored using FLUOstar Omega (BMG, Labtech, NC, USA) simultaneously. After shaking at 100 rpm, readings were taken every 2 min for a total of 40 min at 37 °C. Data were analyzed using the MARS data analysis software provided by the manufacturer and representative plots were made using the GraphPad Prism 7 software."}, "S. aureus USA300 LAC [2]": {"test_system": "S. aureus USA300 LAC", "assay": "Disruption of 24 h established biofilms (XTT)", "format": "cell-based, Staphylococcus aureus", "conditions": "24 h treatment", "experimental": "We also compared the effects of the peptides on established biofilms (24 h). […] When cells are alive (in the absence of peptide), the cell-permeant calcein-AM dye could enter the cells and gave green color as a consequence of the removal of acetoxymethyl (AM) esters by intracellular esterase (Figure 7A). When the cells were dead due to membrane damage by the peptide, the red dye ethidium homodimer (non-membrane permeable) could enter the cell and become red by binding to nucleic acids (Figure 7B).\nThe antibiofilm activity of the peptide against 24 h established biofilms was evaluated as previously described. In short, S. aureus USA300 LAC (10^5 CFU/mL) was made from exponential phase bacteria in TSB media and 180 μL were distributed to each well of the microtiter plate (Corning Costar Cat No. 3595, Amsterdam, The Netherlands). The plates were incubated at 37 °C for 24 h to form a biofilm. Culture treated with water served as a positive control while media without bacterial inoculation served as the negative control. Media were then pipetted out and the attached biofilms were washed with 1× PBS to remove the planktonic bacteria. Each well of the plate was then filled with 20 μL of 10× peptide solution and 180 μL of fresh TSB media and the plates were further incubated at 37 °C for 24 h. Media were then pipetted out and the wells were washed with 1× PBS to remove planktonic cells. The live cells in biofilms were estimated by XTT assay as mentioned above."}, "S. aureus USA300 LAC [3]": {"test_system": "S. aureus USA300 LAC", "assay": "Membrane depolarization, DiBAC4(3)", "format": "cell-based, Staphylococcus aureus", "conditions": "12.5 µM", "experimental": "Bacteria surfaces are negative and cationic peptides are able to neutralize the negative charge, thereby reducing membrane potential. To test this possibility, we evaluated the peptides against S. aureus USA300 LAC using a fluorescent indicator dye, the DiBAC4(3) (Figure 5).\nThe overnight culture of S. aureus USA300 LAC was grown in TSB media to the exponential phase. Cells were then pelleted and washed with PBS twice, and re-suspended in twice the volume of PBS containing 25 mM glucose for 15 min at 37 °C. For membrane depolarization measurements, 250 nM (final concentration) of the dye DiBAC4(3) (bis-(1,3-dibutylbarbituric acid) trimethine oxonol (ANASPEC, Fremont, CA, USA) was added, and vortexed gently. Ninety microliters of the energized bacteria solution were then added in a 96-well microtiter plate (Corning COSTAR). The plate was immediately placed into a FLUOstar Omega (BMG LABTECH Inc., Cary, NC, USA) microplate reader and fluorescence was measured for 20 min. Once the readings are stabilized, 10 μL of peptide solution were added and the fluorescence readings were continued for another 40 min. Measurements were done at an excitation and emission wavelengths of 485 and 520 nm, respectively. Triton X-100 (0.1%) was included as a positive control."}, "S. aureus USA300": {"test_system": "S. aureus USA300", "format": "cell-based, Staphylococcus aureus", "conditions": "USA300", "experimental": "(§1) The antibacterial activity of peptides was evaluated using a standard broth microdilution protocol with minor modifications as previously described. In brief, logarithmic phase bacterial cultures (i.e., optical density at 600 nm ≈ 0.5) were diluted to OD600~0.001 and partitioned into a 96-well polystyrene microplate at 90 μL per well. After treatment with 10 μL of peptide solutions two-fold diluted to various concentrations, microplates were incubated at 37 °C overnight and read on a ChroMate 4300 Microplate Reader at 630 nm (GMI, Ramsey, MN). […] Minimal bactericidal concentration (MBC) was determined by plating the clear wells at MIC or above. The peptide concentration that caused no bacterial growth on the petri dish is MBC."}, "K. pneumonia ATCC 13883": {"test_system": "K. pneumonia ATCC 13883", "conditions": "cited from earlier work", "source_text": "Table 2 Antibacterial activities of the WW peptides against various bacteria. | column: Minimal Inhibitory Concentration (MIC, μM) / KP ^a"}, "E. faecium VRE": {"test_system": "E. faecium VRE", "format": "cell-based", "conditions": "VRE", "experimental": "(§2) The antimicrobial activity spectrum of the WW peptide series was performed on a panel of Gram-positive and -negative bacteria using the standard broth micro-dilution method with minor modifications as described. […] There was a small change in the case of Pseudomonas aeruginosa and Acinetobacter baumannii up to two-fold. Four-fold changes were found for Staphylococcus aureus, Staphylococcus epidermidis, Escherichia coli, and Bacillus subtilis. However, we observed over eight-fold MIC changes for Klebsiella pneumoniae and vancomycin-resistant enterococcus (VRE). […] We also observed more than eight-fold changes in minimal bacterial killing concentrations.\nas §1"}, "P. aeruginosa PAO1": {"test_system": "P. aeruginosa PAO1", "format": "cell-based, Pseudomonas aeruginosa", "conditions": "PAO1", "experimental": "as §2, §1"}, "E. coli ATCC 25922": {"test_system": "E. coli ATCC 25922", "format": "cell-based, Escherichia coli", "conditions": "ATCC 25922", "experimental": "(§3) To gain additional insight, we also compared the effects of physiological saline and human serum on the antibacterial activities of WW291-WW298 using both E. coli and S. aureus (Table 3). In our assays, salts and serum were present during the entire course of the experiment. […] Thus, WW295 and WW298 stand out in terms of activity robustness (bold in Table 3).\nas §1"}, "B. subtilis 167": {"test_system": "B. subtilis 167", "format": "cell-based, Bacillus subtilis", "conditions": "167", "experimental": "as §2, §1"}, "A. baumannii B28-16": {"test_system": "A. baumannii B28-16", "format": "cell-based, Acinetobacter baumannii", "conditions": "B28-16", "experimental": "as §2, §1"}, "E. coli K12": {"test_system": "E. coli K12", "format": "cell-based, Escherichia coli", "conditions": "K12", "experimental": "as §2, §1"}, "S. aureus USA300 LAC [4]": {"test_system": "S. aureus USA300 LAC", "format": "cell-based, Staphylococcus aureus", "conditions": "USA300", "experimental": "as §3, §1"}, "S. aureus Mu50": {"test_system": "S. aureus Mu50", "format": "cell-based, Staphylococcus aureus", "conditions": "Mu50", "experimental": "as §2, §1"}, "human red blood cells": {"test_system": "human red blood cells", "assay": "Hemolytic assay", "format": "cell-based", "conditions": "red cells of human", "experimental": "(§4) Hemolytic assays of peptides were performed as previously described. Briefly, human red blood cells (hRBCs) obtained from UNMC Blood Bank, or chicken or porcine blood cells purchased from commercial sources as previously described, were washed three times with phosphate buffer saline (PBS) and diluted to a 2% solution (V/v). After peptide treatment, incubation at 37 °C for one hour, and centrifugation at 13,000 rpm, aliquots of the supernatant were carefully transferred to a fresh 96-well microplate. The amount of hemoglobin released was measured at 545 nm. The percent lysis was calculated by assuming 100% release when human blood cells were treated with 2% Triton X-100, and 0% release when incubated with PBS buffer. The peptide concentration that caused 50% lysis of hRBCs is defined as HC50."}, "chicken red blood cells": {"test_system": "chicken red blood cells", "assay": "Hemolytic assay", "format": "cell-based", "experimental": "as §4"}, "[5]": {"test_system": "monkey kidney Vero E6 cells", "format": "cell-based", "experimental": "Peptides were assayed for potential in vitro toxicity against human keratinocytes (HaCaT) and THP-1 cells as previously described. THP-1 monocytes were differentiated into macrophages by adding 30 ng/mL of phorbol 12-myristate 13-acetate (PMA; Sigma-Aldrich) to RPMI 1640 supplemented with 10% fetal calf serum culture (FCS) medium for 16 h. Briefly, cells were seeded at a density of 3 × 10^4 per well in a tissue culture 96-well plate in DMEM/RPMI supplemented with 10% fetal bovine serum (FBS), and incubated at 37 °C in a 5% CO2 atmosphere for 24 h. African green monkey kidney Vero E6 cells were cultivated in EMEM in the same manner. Before antimicrobial treatment, wells were replaced with serum free media and treated with peptides at different concentrations for one hour. After incubation, the cells were washed and incubated with 100 μL of DMEM media containing 20 μL of 3-(4,5-dimethylthiazol-2-yl)-5-(3-carboxymethoxyphenyl)-2-(4-sulfophenyl)-2H-tetrazolium (MTS) reagent for two hours at 37 °C. […] Absorbance readings at 492 nm were taken using a ChroMate microplate reader (GMI, Ramsey, MN, USA)."}}, "note": "No end group written: not given here.", "data": [{"compound": "CCCCCCCCCC(=O)N[C@@H](Cc1c[nH]c2ccccc12)C(=O)N[C@H](CC(N)=O)C(=O)N[C@@H](CC(=O)O)C(=O)N[C@@H]1C(=O)NCC(=O)N[C@@H](CCCN)C(=O)N[C@@H](CC(=O)O)C(=O)N[C@H](C)C(=O)N[C@@H](CC(=O)O)C(=O)NCC(=O)N[C@H](CO)C(=O)N[C@@H]([C@H](C)CC(=O)O)C(=O)N[C@@H](CC(=O)c2ccccc2N)C(=O)O[C@@H]1C", "note": "[daptomycin, reference compound]", "values": [{"measurement": "inhibition of MRSA adherence", "setting": "S. aureus USA300 LAC [1]", "result": "~ 50%"}, {"measurement": "outer and inner membrane permeation (nitrocefin 490 nm, ONPG 420 nm)", "setting": "E. coli ML35p", "result": "poor in membrane permeation"}, {"measurement": "disruption of established biofilms (24 h)", "setting": "S. aureus USA300 LAC [2]; 3.1 µM", "result": "much less effective than WW298"}, {"measurement": "disruption of established biofilms (24 h)", "setting": "S. aureus USA300 LAC [2]; 6.25 µM", "result": "eradicating almost all the established biofilm"}, {"measurement": "membrane depolarization (DiBAC4(3) fluorescence)", "setting": "S. aureus USA300 LAC [3]", "result": "significantly less membrane depolarization"}]}, {"compound": "WWWLRKIW [WW291]", "values": [{"measurement": "MBC, USA300", "setting": "S. aureus USA300", "result": 6.2, "unit": "µM"}, {"measurement": "Minimal Inhibitory Concentration (MIC), KP", "setting": "K. pneumonia ATCC 13883", "result": 12.5, "unit": "µM"}, {"measurement": "Minimal Inhibitory Concentration (MIC), VRE", "setting": "E. faecium VRE", "result": 25, "unit": "µM"}, {"measurement": "Minimal Inhibitory Concentration (MIC), PA", "setting": "P. aeruginosa PAO1", "result": 50, "unit": "µM"}, {"measurement": "MIC, +150 mM NaCl", "setting": "E. coli ATCC 25922", "result": 12.5, "unit": "µM"}, {"measurement": "MIC, +10% Human Serum", "setting": "E. coli ATCC 25922", "result": ">25", "unit": "µM"}, {"measurement": "MIC, TSB", "setting": "E. coli ATCC 25922", "result": "6.2 to 12.5", "unit": "µM"}, {"measurement": "Minimal Inhibitory Concentration (MIC), BS", "setting": "B. subtilis 167", "result": 6.25, "unit": "µM"}, {"measurement": "Minimal Inhibitory Concentration (MIC), AB", "setting": "A. baumannii B28-16", "result": 6.25, "unit": "µM"}, {"measurement": "Minimal Inhibitory Concentration (MIC), EC", "setting": "E. coli K12", "result": "6.2 to 12.5", "unit": "µM"}, {"measurement": "MIC, +150 mM NaCl", "setting": "S. aureus USA300 LAC [4]", "result": 3.1, "unit": "µM"}, {"measurement": "MIC, +10% Human Serum", "setting": "S. aureus USA300 LAC [4]", "result": 25, "unit": "µM"}, {"measurement": "MIC, TSB", "setting": "S. aureus USA300 LAC [4]", "result": 3.1, "unit": "µM"}, {"measurement": "Minimal Inhibitory Concentration (MIC), SA", "setting": "S. aureus Mu50", "result": 3.1, "unit": "µM"}, {"measurement": "Human RBC, concentration that caused 50% red blood cell lysis (HC50)", "setting": "human red blood cells", "result": 30, "unit": "µM"}, {"measurement": "Chicken RBC, concentration that caused 50% red blood cell lysis (HC50)", "setting": "chicken red blood cells", "result": 50, "unit": "µM"}, {"measurement": "Vero Cells, concentration that caused 50% cell death (LC50)", "setting": "[5]", "result": 100, "unit": "µM"}]}]}
